Test results reported in patent US20210395721A1, “METHODS TO IMPROVE POTENCY OF ELECTROPORATION” (Codiak BioSciences, Inc., priority 2018, published 2021).

Tests used:
[1] = Anion exchange chromatography (AEX) of siRNA before and after electroporation; type: physicochemical; settings: for effect of excipient on AEX profile of XD-08318 after electroporation: 5 ms per pulse
Method: Anion exchange chromatography (AEX) was carried out on an Agilent 1100 HPLC using a […] PA200 column (Thermo Scientific). The column was equilibrated in 50 mM Tris pH 7.4, and 20 ng of each siRNA sample was prepared in a 100 μl HPLC vial for injection. The sample was injected and subjected to a gradient of 50 mM Tris pH 7.4 (mobile phase A) and 50 mM Tris, 1 M NaCl, pH 7.4 (mobile phase B) according to Tables 1 and 2, below. Electroporation is a common method for introducing nucleic acids into cells and other lipid structures such as exosomes. As an analytical method, siRNAs were analyzed by anion exchange chromatography (AEX), as described above, before and after electroporation. […] XD-08318 is a modified siRNA that contains a 5' terminal deoxyribose residue on the antisense strand, a combination of natural ribose and synthetic 2'-O-methyl ribose residues, and phosphorothioate linkages at the 3' ends of each strand (FIG. 2). Synthetic RNA XD-08318 was electroporated in the presence of several free radical scavengers and reducing agents as excipients.

KRAS G12D transcript = KRAS G12D transcript knockdown in Panc-1 cells; type: cell-based, human; settings: FIG. 14, samples #9, #10 vs #4-8
Method: XD-08318 was loaded into exosomes by electroporation in the presence or absence of free radical scavengers. As a control, XD-08318 was transfected into the human pancreatic cancer cell line Panc-1, which is heterozygous for the G12D mutant transcript of KRAS. […] As controls, in the absence of any transfection reagent, Panc-1 cells were incubated with a mixture of the siRNA and exosomes without electroporation (mix), siRNA only, exosomes alone (EV only), or in the presence of siRNA and exosomes that were electroporated individually (si EP+EV EP Mix). […] Next, XD-08318 was loaded into exosomes by electroporation at pulse code 42 (sample 4) and incubated with cells, resulting in a modest ˜30% repression of the target transcript.

[2] = MaxCyte strong pulse code 66 (high field strength, high frequency)

SMILES | effect of excipient on AEX spectral shift of XD-08318 after electroporation ([1]; MaxCyte intermediate pulse code 63 (high field strength, low frequency)) | effect of excipient on AEX spectral shift of XD-08318 after electroporation [1, 2] | knock-down by modified siRNA electroporated into exosomes in presence of the scavenger, compared to absence of free radical scavengers (KRAS G12D transcript) | effect of excipient on AEX profile of XD-08318 after electroporation ([1]; Gene Pulser XCell (Bio-Rad), 800 V, 2 pulses) | effect of excipient on AEX profile of XD-08318 after electroporation ([1]; Neon Transfection System, 2000 V, 8 pulses)
N[C@@H](CS)C(=O)O [L-cysteine] | prevented the spectral shift | prevented the spectral shift | – | – | –
CSCC[C@H](N)C(=O)O [L-Methionine] | – | prevented the spectral shift | increased knock-down | – | –
N[C@@H](CCC(=O)N[C@@H](CS)C(=O)NCC(=O)O)C(=O)O [Glutathione] | – | prevented the spectral shift | – | prevent a change in the AEX profile | prevent a change in the AEX profile
